Assay results as given in US5656726A, “Peptide inhibitors of urokinase receptor activity” (Chiron Corporation, priority 1995, dated 1997).
Like-named read-outs stand apart in the source and are kept apart here. Peptide text beside a SMILES is read from it.

Molecular target: T1, recombinant human urokinase receptor (truncated, soluble; suPAR) (Homo sapiens, UniProt Q03405)
T1 construct: expressed as a truncated, soluble molecule as described previously for mouse L-cells (Masucci et al., J Biol Chem (1991) 266:8655); made in house
T1 sequence (Q03405 23-299 limits assumed): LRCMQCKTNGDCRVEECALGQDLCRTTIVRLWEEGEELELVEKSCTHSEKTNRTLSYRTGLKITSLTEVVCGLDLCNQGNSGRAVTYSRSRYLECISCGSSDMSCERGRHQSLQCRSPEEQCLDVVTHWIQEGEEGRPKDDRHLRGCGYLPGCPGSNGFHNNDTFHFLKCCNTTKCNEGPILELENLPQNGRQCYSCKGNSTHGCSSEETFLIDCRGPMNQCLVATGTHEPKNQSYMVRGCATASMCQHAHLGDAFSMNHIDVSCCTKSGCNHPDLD
Experiment: 125I-ATF competition binding on immobilized soluble recombinant human urokinase receptor
Conditions: synthesized peptide, read-out: Affinity

[1] = corrected to 100 pM ATF, 0.3 μg/mL suPAR conditions, corrections about 3 × from previous assay conditions
[2] = assay performed at 100 pM ATF, 0.3 μg/mL suPAR in 200 μL (starred values)

CSCC[C@H](NC(=O)[C@@H](NC(=O)[C@H](CC(N)=O)NC(=O)[C@H](CO)NC(=O)[C@H](CC(C)C)NC(=O)[C@H](Cc1ccccc1)NC(=O)[C@H](Cc1c[nH]c2ccccc12)NC(=O)[C@H](C)NC(=O)[C@H](CCC(=O)O)NC(=O)[C@H](C)N)[C@@H](C)O)C(=O)N[C@@H](CCCCN)C(=O)N[C@@H](C)C(=O)N[C@@H](CC(C)C)C(=O)N[C@@H](CO)C(=O)N[C@@H](C)C(=O)N[C@@H](CCCNC(=N)N)C(=O)N[C@@H](CC(C)C)C(N)=O (H-AEAWFLSNTMKALSARL-NH2)
Kd [1]: 4 µM

CC(C)C[C@H](NC(=O)[C@H](CO)NC(=O)[C@H](CO)NC(=O)[C@H](Cc1ccc(O)cc1)NC(=O)[C@@H](NC(=O)[C@H](Cc1c[nH]cn1)NC(=O)[C@H](CCC(=O)O)NC(=O)[C@H](C)N)[C@@H](C)O)C(=O)N[C@@H](Cc1c[nH]c2ccccc12)C(=O)N[C@@H](CC(=O)O)C(=O)N[C@H](C(=O)N[C@@H](Cc1ccc(O)cc1)C(=O)N[C@@H](CO)C(=O)N1CCC[C@H]1C(=O)N[C@@H](CC(C)C)C(=O)N[C@@H](C)C(=O)N[C@@H](Cc1ccccc1)C(N)=O)[C@@H](C)O (H-AEHTYSSLWDTYSPLAF-NH2)
Kd [2]: 0.35 µM

CC[C@H](C)[C@H](NC(=O)[C@H](CCC(=O)O)NC(=O)[C@H](C)N)C(=O)N[C@@H](CCCCN)C(=O)N[C@H](C(=O)N[C@@H](CC(=O)O)C(=O)N[C@@H](CCC(=O)O)C(=O)N[C@@H](CCCCN)C(=O)N[C@@H](CCSC)C(=O)NCC(=O)N[C@@H](CC(C)C)C(=O)N[C@@H](Cc1c[nH]c2ccccc12)C(=O)N[C@@H](CC(=O)O)C(=O)N[C@@H](CC(C)C)C(=O)N[C@@H](Cc1ccc(O)cc1)C(=O)N[C@@H](CO)C(=O)N[C@@H](CCSC)C(N)=O)[C@@H](C)O (H-AEIKTDEKMGLWDLYSM-NH2)
Kd [2]: 25 µM

CC[C@H](C)[C@H](NC(=O)[C@H](CCC(=O)O)NC(=O)[C@H](C)N)C(=O)N[C@@H](CC(C)C)C(=O)N[C@@H](CC(N)=O)C(=O)N[C@@H](Cc1ccccc1)C(=O)N1CCC[C@H]1C(=O)N[C@@H](CC(C)C)C(=O)N[C@@H](Cc1c[nH]c2ccccc12)C(=O)N[C@@H](Cc1c[nH]cn1)C(=O)N[C@@H](CCC(=O)O)C(=O)N1CCC[C@H]1C(=O)N[C@@H](CC(C)C)C(=O)N[C@@H](Cc1c[nH]c2ccccc12)C(=O)N[C@@H](CO)C(=O)N[C@H](C(=O)N[C@@H](CCC(=O)O)C(N)=O)[C@@H](C)O (H-AEILNFPLWHEPLWSTE-NH2)
Kd [2]: 15 µM

CC[C@H](C)[C@H](NC(=O)[C@H](CCC(=O)O)NC(=O)[C@H](C)N)C(=O)N[C@@H](CO)C(=O)N[C@@H](Cc1ccccc1)C(=O)N[C@@H](CO)C(=O)N[C@@H](CCC(=O)O)C(=O)N[C@@H](CC(C)C)C(=O)N[C@@H](CCSC)C(=O)N[C@@H](Cc1c[nH]c2ccccc12)C(=O)N[C@@H](CC(C)C)C(=O)N[C@@H](CCCNC(=N)N)C(=O)N[C@@H](CO)C(=O)N[C@H](C(=O)N1CCC[C@H]1C(=O)N[C@@H](C)C(=O)N[C@@H](Cc1ccccc1)C(N)=O)[C@@H](C)O (H-AEISFSELMWLRSTPAF-NH2)
Kd [2]: 6 µM

CSCC[C@H](NC(=O)[C@H](Cc1c[nH]c2ccccc12)NC(=O)[C@H](CC(C)C)NC(=O)[C@H](CC(=O)O)NC(=O)[C@H](CC(C)C)NC(=O)[C@H](CCC(=O)O)NC(=O)[C@H](C)N)C(=O)N[C@@H](CCCNC(=N)N)C(=O)N[C@@H](Cc1c[nH]cn1)C(=O)N[C@@H](Cc1ccc(O)cc1)C(=O)N1CCC[C@H]1C(=O)N[C@@H](CC(C)C)C(=O)N[C@@H](CO)C(=O)N[C@@H](Cc1ccccc1)C(=O)N[C@@H](CO)C(=O)N[C@@H](CC(N)=O)C(=O)N[C@@H](CCCNC(=N)N)C(N)=O (H-AELDLWMRHYPLSFSNR-NH2)
Kd [2]: 0.8 µM

CC(C)C[C@H](NC(=O)[C@H](CCC(=O)O)NC(=O)[C@H](C)N)C(=O)N1CCC[C@H]1C(=O)N[C@@H](CCCNC(=N)N)C(=O)N[C@H](C(=O)N[C@@H](CC(N)=O)C(=O)N1CCC[C@H]1C(=O)N[C@H](C(=O)N[C@H](C(=O)N[C@@H](C)C(=O)N[C@H](C(=O)N[C@@H](CCCCN)C(=O)N[C@@H](CC(N)=O)C(=O)N1CCC[C@H]1C(=O)N[C@@H](CO)C(=O)N[C@@H](Cc1ccccc1)C(N)=O)C(C)C)[C@@H](C)O)C(C)C)[C@@H](C)O (H-AELPRTNPVTAVKNPSF-NH2)
Kd [1]: > 50 µM

CC[C@H](C)[C@H](NC(=O)[C@H](Cc1c[nH]c2ccccc12)NC(=O)[C@H](CC(C)C)NC(=O)[C@H](CC(=O)O)NC(=O)[C@H](C)NC(=O)[C@H](CCC(=O)O)NC(=O)[C@H](CO)NC(=O)[C@H](CC(C)C)NC(=O)[C@H](CCC(=O)O)NC(=O)[C@H](C)N)C(=O)N[C@H](C(=O)N[C@@H](Cc1c[nH]c2ccccc12)C(=O)N[C@@H](Cc1ccccc1)C(=O)NCC(=O)N[C@@H](CCSC)C(=O)NCC(=O)N[C@@H](CO)C(N)=O)[C@@H](C)O (H-AELSEADLWITWFGMGS-NH2)
Kd [2]: 20 µM

CC(C)C[C@H](NC(=O)CNC(=O)[C@@H]1CCCN1C(=O)[C@H](CC(N)=O)NC(=O)[C@H](Cc1ccccc1)NC(=O)[C@H](Cc1ccccc1)NC(=O)[C@H](Cc1ccccc1)NC(=O)[C@H](CO)NC(=O)[C@H](Cc1c[nH]c2ccccc12)NC(=O)[C@H](CC(N)=O)NC(=O)[C@H](CC(C)C)NC(=O)[C@H](CC(C)C)NC(=O)[C@H](C)NC(=O)[C@@H]1CCCN1C(=O)[C@H](CCC(=O)O)NC(=O)[C@H](C)N)C(=O)N[C@@H](Cc1c[nH]cn1)C(N)=O (H-AEPALLNWSFFFNPGLH-NH2)
Kd [1]: 3 µM

CSCC[C@H](NC(=O)[C@H](C)NC(=O)[C@H](CC(C)C)NC(=O)[C@@H]1CCCN1C(=O)[C@@H]1CCCN1C(=O)[C@H](CC(C)C)NC(=O)[C@H](CO)NC(=O)[C@H](Cc1ccc(O)cc1)NC(=O)[C@H](CC(C)C)NC(=O)[C@H](CO)NC(=O)[C@H](Cc1c[nH]c2ccccc12)NC(=O)[C@H](CC(C)C)NC(=O)[C@H](CC(=O)O)NC(=O)[C@H](CC(C)C)NC(=O)[C@@H]1CCCN1C(=O)[C@H](CCC(=O)O)NC(=O)[C@H](C)N)C(N)=O (H-AEPLDLWSLYSLPPLAM-NH2)
Kd [1]: 5 µM

CC(C)C[C@H](NC(=O)[C@H](CO)NC(=O)[C@H](CC(C)C)NC(=O)[C@@H]1CCCN1C(=O)[C@H](CCC(=O)O)NC(=O)[C@H](C)N)C(=O)N[C@@H](Cc1ccc(O)cc1)C(=O)N[C@@H](CCC(N)=O)C(=O)N[C@@H](CCCCN)C(=O)N[C@@H](CCCCN)C(=O)N[C@H](C(=O)N[C@@H](CC(C)C)C(=O)N[C@@H](CCCNC(=N)N)C(=O)N[C@@H](Cc1c[nH]cn1)C(=O)N[C@@H](Cc1ccccc1)C(=O)N[C@@H](C)C(=O)N[C@@H](CC(N)=O)C(N)=O)[C@@H](C)O (H-AEPLSLYQKKTLRHFAN-NH2)
Kd [1]: > 50 µM

CSCC[C@H](NC(=O)[C@@H]1CCCN1C(=O)[C@H](CCC(=O)O)NC(=O)[C@H](C)N)C(=O)N1CCC[C@H]1C(=O)N[C@@H](Cc1c[nH]cn1)C(=O)N[C@@H](CO)C(=O)N[C@@H](CC(C)C)C(=O)N[C@@H](CC(N)=O)C(=O)N[C@@H](Cc1ccccc1)C(=O)N[C@@H](CO)C(=O)N[C@@H](CCC(N)=O)C(=O)N[C@@H](Cc1ccc(O)cc1)C(=O)N[C@@H](CC(C)C)C(=O)N[C@@H](Cc1c[nH]c2ccccc12)C(=O)N[C@@H](Cc1ccc(O)cc1)C(=O)N[C@H](C(N)=O)[C@@H](C)O (H-AEPMPHSLNFSQYLWYT-NH2)
Kd [2]: 0.015 µM

CC(C)C[C@H](NC(=O)[C@H](CCCNC(=N)N)NC(=O)[C@H](CC(C)C)NC(=O)[C@@H]1CCCN1C(=O)[C@H](Cc1ccccc1)NC(=O)[C@H](CCC(N)=O)NC(=O)[C@H](Cc1ccc(O)cc1)NC(=O)[C@H](CC(C)C)NC(=O)[C@H](CCC(N)=O)NC(=O)[C@H](Cc1c[nH]c2ccccc12)NC(=O)[C@H](CC(C)C)NC(=O)[C@@H](NC(=O)[C@@H]1CCCN1C(=O)[C@H](CCC(=O)O)NC(=O)[C@H](C)N)[C@@H](C)O)C(=O)N[C@@H](CO)C(=O)NCC(N)=O (H-AEPTLWQLYQFPLRLSG-NH2)
Kd [1]: 5 µM

CC[C@H](C)[C@H](NC(=O)[C@H](CO)NC(=O)[C@@H](NC(=O)[C@H](CC(C)C)NC(=O)[C@@H](NC(=O)[C@@H]1CCCN1C(=O)[C@H](CC(C)C)NC(=O)[C@H](CO)NC(=O)[C@H](CCC(=O)O)NC(=O)[C@H](C)N)[C@@H](C)O)[C@@H](C)O)C(=O)N[C@@H](CC(C)C)C(=O)N[C@@H](Cc1c[nH]c2ccccc12)C(=O)NCC(=O)N[C@@H](CCCCN)C(=O)N[C@@H](CCC(=O)O)C(=O)N[C@@H](CO)C(=O)N[C@H](C(N)=O)C(C)C (H-AESLPTLTSILWGKESV-NH2)
Kd [1]: 7 µM

CC(C)C[C@H](NC(=O)[C@@H](NC(=O)CNC(=O)[C@@H](NC(=O)[C@H](CCC(N)=O)NC(=O)[C@H](CO)NC(=O)[C@H](CCC(=O)O)NC(=O)[C@H](C)N)[C@@H](C)O)[C@@H](C)O)C(=O)N[C@@H](CC(N)=O)C(=O)N[C@H](C(=O)N[C@@H](CC(C)C)C(=O)N[C@@H](Cc1ccccc1)C(=O)N[C@@H](Cc1c[nH]c2ccccc12)C(=O)N[C@@H](CC(N)=O)C(=O)N[C@H](C(=O)N[C@@H](CC(C)C)C(=O)N[C@@H](CCCNC(=N)N)C(N)=O)[C@@H](C)O)[C@@H](C)O (H-AESQTGTLNTLFWNTLR-NH2)
Kd [1]: 7 µM

CC[C@H](C)[C@H](NC(=O)[C@H](CCCNC(=N)N)NC(=O)[C@H](Cc1c[nH]c2ccccc12)NC(=O)[C@H](CC(C)C)NC(=O)[C@H](CO)NC(=O)[C@H](CO)NC(=O)[C@H](CCC(=O)O)NC(=O)[C@H](C)N)C(=O)N[C@@H](Cc1ccccc1)C(=O)N[C@@H](CO)C(=O)N1CCC[C@H]1C(=O)N[C@@H](CO)C(=O)N[C@@H](C)C(=O)N[C@@H](CC(C)C)C(=O)N[C@@H](CCSC)C(=O)N[C@@H](CCSC)C(=O)N[C@@H](CO)C(N)=O (H-AESSLWRIFSPSALMMS-NH2)
Kd [1]: 7 µM

CSCC[C@H](NC(=O)[C@H](CO)NC(=O)[C@@H]1CCCN1C(=O)[C@H](Cc1c[nH]c2ccccc12)NC(=O)[C@H](C)NC(=O)[C@H](Cc1ccc(O)cc1)NC(=O)[C@H](CCCNC(=N)N)NC(=O)[C@@H](NC(=O)[C@H](Cc1c[nH]c2ccccc12)NC(=O)[C@H](CC(C)C)NC(=O)[C@H](CO)NC(=O)[C@H](CO)NC(=O)[C@H](CCC(=O)O)NC(=O)[C@H](C)N)[C@@H](C)O)C(=O)N1CCC[C@H]1C(=O)N[C@@H](CO)C(=O)N[C@@H](Cc1ccc(O)cc1)C(N)=O (H-AESSLWTRYAWPSMPSY-NH2)
Kd [1]: 0.35 µM
